For one test, the target named is GPIIb/IIIa (Homo sapiens, UniProt P05106+P08514). The experiment in a line: In vitro solid phase purified glycoprotein IIb/IIIa binding assay (fibrinogen binding). To be noted: for inhibition at 50 µM: read-out: Fibrinogen Binding % Inh. (50 μM). How it is done: In Vito Solid Phase Purified Glycoprotein IIB/IIA Binding Assay
The plate was covered and incubated overnight at 4° C. The GPIIb/IIa solution was discarded and 150 μl of 5% BSA was added and incubated at RT for 1-3 h. The plate was washed extensively with modified Tyrodes buffer. Biotinylated fibrinogen (25 μl/well) at 2×final concentration was added to the wells that contain the test compounds (25 μl/well). The plate was covered and incubated at RT for 2-4 h. Twenty minutes prior to incubation completion, one drop of Reagent A (Vecta Stain ABC Horse Radish Peroxidase kit, Vector Laboratories, Inc.) and one drop Reagent B were added with mixing to 5 mL modified Tyrodes buffer mix and let stand. The ligand solution was discarded and the plate washed (5×200 μl/well) with modified Tyrodes buffer. Vecta Stain HRP-Biotin-Avidin reagent (50 μl/well, as prepared above) was added and incubated at RT for 15 min. The Vecta Stain solution was discarded and the wells washed (5×200 μl/well) with modified Tyrodes buffer. Developing buffer (10 mL of 50 mM citrate/phosphate buffer @ pH 5.3, 6 mg o-phenylenediamine, 6 μl 30% H2 O2; 50 μl/well) was added and incubated at RT for 3-5 min, and then 2N H2 SO4 (50 μl/well) was added. The absorbance was read at 490 nm.

The next test relates to gel-filtered platelets. The experiment in a line: In vitro inhibition of thrombin-induced gel-filtered platelet aggregation. It is filed as cell-based. The note with it: Homo sapiens; for inhibition at 50 µM: read-out: Platelet Aggregation % Inh. (50 μM). Here is the method:
In Vitro Inhibition of Thrombin-Induced Gel-Filtered Platelet Aggression Assay
The percentage of platelet aggregation is calculated as an increase in light transmission of compound-treated platelet concentrate vs. control-treated platelet concentrate. Human blood was obtained from drug free, normal donors into tubes containing […] sodium citrate. Platelet rich plasma (PRP) was collected by centrifugation of whole blood at 200×g for 10 min at 25° C. The PRP (5 mL) was gel filtered through Sepharose 2B (bed volume 50 mL), and the platelet count was adjusted to 2×10^7 platelets per sample. The following constituents were added to a siliconized cuvette: concentrated platelet filtrate and Tyrode's buffer (0.14M NaCl, 0.0027M KCl, 0.012M NaHCO3,0.76 mM Na2 HPO4, 0.0055M glucose, 2 mg/mL BSA and 5.0 mM HEPES @ pH 7.4) in an amount equal to 350 μl, 50 μl of 20 mM calcium and 50 μl of the test compound. Aggregation was monitored in a BIODATA aggregometer for the 3 min following the addition of agonist (thrombin 50 μl of 1 unit/mL).

Test [1] deals with ADP-induced ex vivo platelet aggregation. Nature of the test: Ex vivo dog study: duration of >50% inhibition of ADP-induced ex vivo platelet aggregation. It counts as in vivo. Here is the method: Adult mongrel dogs (8-13 kg) were anesthetized with sodium pentobarbital (35 mg/kg, i.v.) and artificially respired. Arterial blood pressure and heart rate were measured using a Millar catheter-tip pressure transducer inserted in a femoral artery. Another Millar transducer was placed in the left ventricle (LV) via a carotid artery to measure LV end diastolic pressure and indices of myocardial contractility. A lead II electrocardiogram was recorded from limb electrodes. Catheters were placed in a femoral artery and vein to sample blood and infuse drugs, respectively. Responses were continuously monitored using a Modular Instruments data acquisition system.
Arterial blood samples (5-9 ml) were withdrawn into tubes containing 3.8% sodium citrate to prepare platelet rich plasma (PRP) and to determine effects on coagulation parameters: prothrombin time (PT) and activated partial thromboplastin time (APTT). Separate blood samples (1.5 ml) were withdrawn in EDTA to determine hematocrit and cell counts (platelets, RBC's and white cells). Template bleeding times were obtained from the buccal surface using a symplate incision devise and Whatman filter paper.
Aggregation of PRP was performed using a BioData aggregometer. Aggregation of whole blood used a Chronolog impedance aggregometer. PT and APTT were determined on either a BioData or ACL 3000+ coagulation analyzer. Cells were counted with a Sysmex K-1000.
Compounds were solubilized in a small volume of dimethylformamide (DMF) and diluted with saline to a final concentration of 10% DMF. Compounds were administered by the intravenous route with a Harvard infusion pump. Doses was administered over a 15 min interval at a constant rate of 0.33 ml/min. Data were obtained after each dose and in 30 min intervals following the end of drug administration. Oral doses were administered as aqueous solutions via syringe.

Chain of GPIIb/IIIa (P08514 32-887 limits assumed): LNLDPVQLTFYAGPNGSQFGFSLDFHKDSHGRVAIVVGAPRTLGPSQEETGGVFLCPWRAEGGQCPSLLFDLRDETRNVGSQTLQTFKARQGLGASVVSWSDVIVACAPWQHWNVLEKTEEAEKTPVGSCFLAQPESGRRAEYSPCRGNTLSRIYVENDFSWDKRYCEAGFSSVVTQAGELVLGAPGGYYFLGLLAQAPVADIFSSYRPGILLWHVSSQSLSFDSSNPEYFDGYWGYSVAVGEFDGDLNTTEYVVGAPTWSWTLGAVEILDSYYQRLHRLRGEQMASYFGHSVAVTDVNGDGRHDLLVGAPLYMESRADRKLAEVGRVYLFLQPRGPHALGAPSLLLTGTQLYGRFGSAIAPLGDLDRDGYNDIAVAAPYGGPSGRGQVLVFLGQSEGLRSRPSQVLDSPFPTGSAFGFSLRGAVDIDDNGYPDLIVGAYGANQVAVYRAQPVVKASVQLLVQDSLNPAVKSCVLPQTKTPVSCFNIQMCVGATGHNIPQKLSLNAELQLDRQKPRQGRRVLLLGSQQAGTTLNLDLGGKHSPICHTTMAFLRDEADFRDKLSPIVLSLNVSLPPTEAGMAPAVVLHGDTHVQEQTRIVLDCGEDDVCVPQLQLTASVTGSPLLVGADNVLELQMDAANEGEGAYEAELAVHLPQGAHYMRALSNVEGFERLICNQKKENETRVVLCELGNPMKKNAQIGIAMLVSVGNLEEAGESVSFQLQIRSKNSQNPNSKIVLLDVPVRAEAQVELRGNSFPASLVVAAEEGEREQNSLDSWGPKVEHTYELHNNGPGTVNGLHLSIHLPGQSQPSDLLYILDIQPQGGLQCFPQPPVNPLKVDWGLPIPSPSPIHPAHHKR
Chain of GPIIb/IIIa (P08514 891-1039 limits assumed): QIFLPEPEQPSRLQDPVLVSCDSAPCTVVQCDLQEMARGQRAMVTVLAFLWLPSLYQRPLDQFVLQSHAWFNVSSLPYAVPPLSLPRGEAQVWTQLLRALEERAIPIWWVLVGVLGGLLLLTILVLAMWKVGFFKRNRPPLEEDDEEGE
Chain of GPIIb/IIIa (P05106 27-788): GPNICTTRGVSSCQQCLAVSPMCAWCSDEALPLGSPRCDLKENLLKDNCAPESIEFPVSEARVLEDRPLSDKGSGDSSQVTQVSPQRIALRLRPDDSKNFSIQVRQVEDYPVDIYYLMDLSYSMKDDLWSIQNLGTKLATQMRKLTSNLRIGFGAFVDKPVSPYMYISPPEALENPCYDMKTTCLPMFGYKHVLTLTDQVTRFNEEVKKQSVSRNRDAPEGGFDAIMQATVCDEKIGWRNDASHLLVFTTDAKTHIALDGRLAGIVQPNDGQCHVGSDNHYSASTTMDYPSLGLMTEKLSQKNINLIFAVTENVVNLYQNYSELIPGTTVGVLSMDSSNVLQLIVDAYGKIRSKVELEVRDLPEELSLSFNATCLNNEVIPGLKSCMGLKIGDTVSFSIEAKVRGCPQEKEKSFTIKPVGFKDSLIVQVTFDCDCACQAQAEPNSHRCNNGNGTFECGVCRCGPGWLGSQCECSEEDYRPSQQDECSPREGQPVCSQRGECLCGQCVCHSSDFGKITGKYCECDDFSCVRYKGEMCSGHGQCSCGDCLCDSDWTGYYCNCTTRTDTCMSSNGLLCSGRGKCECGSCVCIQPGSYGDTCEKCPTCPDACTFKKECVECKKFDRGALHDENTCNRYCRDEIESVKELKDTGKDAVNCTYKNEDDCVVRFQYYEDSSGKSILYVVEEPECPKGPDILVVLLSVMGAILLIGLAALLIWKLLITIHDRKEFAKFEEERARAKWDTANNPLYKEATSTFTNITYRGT

Take `O=C(O)C[C@H](NC(=O)C1CCCn2c(CCC3CCNCC3)nnc21)c1cccnc1` (stereo partly drawn) [Compound 1, β-[[[5,6,7,8-Tetrahydro-3-[2-(4-piperidinyl)ethyl]-1,2,4-triazolo[4,3-a]pyridin-8-yl]carbonyl]amino]-βS-3-pyridinepropanoic acid]: at GPIIb/IIIa, the IC50 amounted to 0.4 nM and the inhibition at 50 µM was determined as 100%. Further, in the test on gel-filtered platelets, half-maximal inhibition (IC50) was put at 16 nM and the inhibition at 50 µM was 100%. Also, the “Intravenous Dosing Duration (of >50% inhibition of ADP-induced ex vivo platelet aggregation)” value in test [1] (0.3 mpk) is 180 min. In addition, the “Oral Dosing Duration (of >50% inhibition of ADP-induced ex vivo platelet aggregation)” value in test [1] (3 mpk) came to 360 min.
For the compound `O=C(O)CCNC(=O)C1CCCn2c(CCC3CCNCC3)nnc21` (stereo not drawn) [Compound 2, β-[[[5,6,7,8-Tetrahydro-3-[2-(4-piperidinyl)ethyl]-1,2,4-triazolo[4,3-a]pyridin-8-yl]carbonyl]amino]-β-propanoic acid], the IC50 on GPIIb/IIIa was determined as 7.2 nM; in the test with gel-filtered platelets, 1300 nM. Further, the inhibition at 50 µM on GPIIb/IIIa and in the test with gel-filtered platelets was 98% in each case.
Turning to `O=C(N[C@@H](CNC(=O)C1CCCn2c(CCC3CCNCC3)nnc21)C(=O)O)OCc1ccccc1` (stereo partly drawn) [Compound 3, β-[[[5,6,7,8-Tetrahydro-3-[2-(4-piperidinyl)ethyl]-1,2,4-triazolo[4,3-a]pyridin-8-yl]carbonyl]amino]-αS-benzyloxycarbonylamino-propanoic acid], at GPIIb/IIIa, the IC50 was determined as 0.48 nM and the inhibition at 50 µM stood at 100%. For the same compound, in the test with gel-filtered platelets, the IC50 was 68 nM and the inhibition at 50 µM came out at 100%. In addition, the “Intravenous Dosing Duration (of >50% inhibition of ADP-induced ex vivo platelet aggregation)” value in test [1] (0.1 mpk) was found to be 120 min. For the same compound, the “Oral Dosing Duration (of >50% inhibition of ADP-induced ex vivo platelet aggregation)” value in test [1] (1 mpk) is reported as 300 min.
For the compound `CCN(CC)C(=O)COC(=O)C[C@H](NC(=O)C1CCCn2c(CCC3CCNCC3)nnc21)c1cccnc1` (stereo partly drawn) [Compound 4, β-[[[5,6,7,8-Tetrahydro-3-[2-(4-piperidinyl)ethyl]-1,2,4-triazolo[4,3-a]pyridin-8-yl]carbonyl]amino]-βS-3-pyridinepropanoic acid 2-(Diethylamino)-2-oxoethyl ester], on GPIIb/IIIa, the IC50 was found to be 44.7 nM and the inhibition at 50 µM came to 100%. In addition, in the test with gel-filtered platelets, the IC50 was determined as 16400 nM and the inhibition at 50 µM was 100%. In addition, in test [1] (1 mpk), the “Oral Dosing Duration (of >50% inhibition of ADP-induced ex vivo platelet aggregation)” value is < 30 min.
As for `CCN(CC)C(=O)COC(=O)[C@H](CNC(=O)C1CCCn2c(CCC3CCNCC3)nnc21)NC(=O)OCc1ccccc1` (stereo partly drawn) [Compound 6, β-[[[5,6,7,8-Tetrahydro-3-[2-(4-piperidinyl)ethyl]-1,2,4-triazolo[4,3-a]pyridin-8-yl]carbonyl]amino]-αS-benzyloxycarbonylamino-propanoic acid 2-(Diethylamino)-2-oxoethyl ester], at GPIIb/IIIa, the IC50 was 8.2 nM and the inhibition at 50 µM worked out at 100%. Besides, in the test on gel-filtered platelets, the IC50 came out at 1900 nM and the inhibition at 50 µM is 100%.
In the case of `O=C(O)CC(NC(=O)C1CCCn2c(CCC3CCNCC3)nnc21)c1ccsc1` (stereo not drawn) [Compound 7, β-[[[5,6,7,8-Tetrahydro-3-[2-(4-piperidinyl)ethyl]-1,2,4-triazolo[4,3-a]pyridin-8-yl]carbonyl]amino]-β-3-thiophenepropanoic acid], at GPIIb/IIIa, the IC50 turned out to be 0.75 nM and the inhibition at 50 µM was 100%. In the test with gel-filtered platelets, half-maximal inhibition (IC50) required 350 nM and the inhibition at 50 µM turned out to be 100%.
Take `O=C(NC(CNC(=O)C1CCCn2c(C(F)=CC3CCNCC3)nnc21)C(=O)O)OCc1ccccc1` (stereo not drawn) [Compound 9, β-[[[6,7,8-Tetrahydro-3-[2-(4-piperidinyl)Z-1-fluoroethylene]-1,2,4-triazolo[4,3-a]pyridin-8-yl]carbonyl]amino]-αS-benzyloxycarbonylamino-propanoic acid]: on GPIIb/IIIa, the IC50 came out at 1.7 nM and the inhibition at 50 µM came to 100%. Besides, in the test on gel-filtered platelets, the IC50 worked out at 500 nM and the inhibition at 50 µM came out at 100%.
Consider `O=C(O)CC(NC(=O)C1CCCn2c(/C=C/C3CCNCC3)nnc21)c1ccncc1` (stereo not drawn) [Compound 10, β-[[[5,6,7,8-Tetrahydro-3-[2-(4-piperidinyl)E-ethylene]-1,2,4-triazolo[4,3-a]pyridin-8-yl]carbonyl]amino]-β-4-pyridinepropanoic acid], for which the IC50 at GPIIb/IIIa was 0.94 nM; with gel-filtered platelets it was 180 nM. The inhibition at 50 µM at GPIIb/IIIa and with gel-filtered platelets was 100% throughout.
`Cc1noc(C)c1S(=O)(=O)N[C@@H](CNC(=O)C1CCCn2c(/C=C/C3CCNCC3)nnc21)C(=O)O` (stereo partly drawn) [Compound 11, β-[[[5,6,7,8-Tetrahydro-3-[2-(4-piperidinyl)E-ethylene]-1,2,4-triazolo[4,3-a]pyridin-8-yl]carbonyl]amino]-αS-4-(3,5-dimethylisoxazolyl)sulfonylamino-propanoic acid]: the IC50 on GPIIb/IIIa is 1.1 nM; with gel-filtered platelets, 110 nM. Besides, the inhibition at 50 µM at GPIIb/IIIa and in the test on gel-filtered platelets was 100% in each case.
Take `O=C(O)C[C@H](NC(=O)C1CCCn2c(/C=C/C3CCNCC3)nnc21)c1cnc2ccccc2c1` (stereo partly drawn) [Compound 13, β-[[[5,6,7,8-Tetrahydro-3-[2-(4-piperidinyl)E-ethylene]-1,2,4-tiazolo[4,3-a]pyridin-8-yl]carbonyl]amino]-βS-3-quinolinylpropanoic acid]: the IC50 at GPIIb/IIIa came to 0.44 nM; in the test on gel-filtered platelets, 57 nM. Further, the inhibition at 50 µM on GPIIb/IIIa and with gel-filtered platelets was 100% throughout.
Take `O=C(NC[C@H](NS(=O)(=O)Cc1ccccc1)C(=O)O)C1CCCn2c(/C=C/C3CCNCC3)nnc21` (stereo partly drawn) [Compound 14, β-[[[5,6,7,8-Tetrahydro-3-[2-(4-piperidinyl)E-ethylene]-1,2,4-triazolo[4,3-a]pyridin-8-yl]carbonyl]amino]-αS-benzylsulfonylamino-propanoic acid]: at GPIIb/IIIa, the IC50 was determined as 0.51 nM and the inhibition at 50 µM worked out at 100%. Besides, in the test with gel-filtered platelets, the IC50 was 43 nM and the inhibition at 50 µM is 100%.
Consider `O=C(Cc1cccnc1)N[C@@H](CNC(=O)C1CCCn2c(/C=C/C3CCNCC3)nnc21)C(=O)O` (stereo partly drawn) [Compound 15, β-[[[5,6,7,8-Tetrahydro-3-[2-(4-piperidinyl)E-ethylene]-1,2,4-triazolo[4,3-a]pyridin-8-yl]carbonyl]amino]-αS-3-pyridylacetylamino-propanoicacid], for which, at GPIIb/IIIa, the IC50 stood at 1.4 nM and the inhibition at 50 µM was found to be 100%. In the test on gel-filtered platelets, the IC50 came to 120 nM and the inhibition at 50 µM came out at 100%.
`CC(C)COC(=O)N[C@@H](CNC(=O)C1CCCn2c(/C=C/C3CCNCC3)nnc21)C(=O)O` (stereo partly drawn) [Compound 16, β-[[[5,6,7,8-Tetrahydro-3-[2-(4-piperidinyl)E-ethylene]-1,2,4-triazolo[4,3-a]pyridin-8-yl]carbonyl]amino]-αS-isobutyloxycarbonylamino-propanoic acid]: at GPIIb/IIIa, the half-maximal inhibitory concentration (IC50) was found to be 0.6 nM and the inhibition at 50 µM is 100%. For the same compound, in the test on gel-filtered platelets, the IC50 stood at 600 nM and the inhibition at 50 µM came out at 100%.
`O=C(O)C[C@H](NC(=O)c1cccn2c(CCC3CCNCC3)nnc12)c1cccnc1` [Compound 17, β-[[[3-[2-(4-piperidinyl)ethyl]-1,2,4-triazolo[4,3-a]pyridin-8-yl]carbonyl]amino]-βS-3-pyridylpropanoic acid]: on GPIIb/IIIa, the IC50 was determined as 443 nM and the inhibition at 50 µM turned out to be 90%. Moreover, the IC50 in the test with gel-filtered platelets is > 1000 nM.
